Experimental data as given in PubChem BioAssay AID2060503 (Molecular Pharmacology Branch, DTP, NCI, 2025).

System: 817829-284-R-J1-PDC complex spheroids, viability
Assay: Anticancer human tumor 817829-284-R-J1-PDC patient-derived colon adenocarcinoma cell line growth inhibition [GQUAD]
Conditions: for IC50: curve of first compound; for viability, T/C: stronger effect = lower value; active = viability on the fitted dose curve at most 10% of control; inactive = the rest
Text: DNA G-quadruplex Stabilizer Agents in Combinations in Complex Spheroids
A high-throughput screen of multi-cell type tumor spheroids was designed to identify active combinations of DNA G-quadruplex stabilizer agents and targeted small molecules. Complex spheroids include a stromal component modeled by human endothelial cells (HUVEC) and fibroblasts modeled by human mesenchymal stem cells (MSCs). The concentration ranges selected for each drug and investigational agent were based upon clinically achievable concentrations if the clinical Cmax of the agent was known.
Compounds. The drugs and investigational agents: pidnarulex (CX-5461; NSC782164), APTO-253 (NSC789042), BRACO-19 (NSC847499), peposertib (NSC802822), ceralasertib (NSC780249), elimusertib (NSC800525), camonsertib (NSC841442), AZD-1390 (NSC803789), olaparib (NSC753686), talazoparib (NSC767125), ART-558 (NSC835418), sotorasib (NSC818433), MRTX-1133 (NSC836407), SN-38 (NSC673596), topotecan (NSC609699), etoposide (NSC141540), doxorubicin (NSC123127), gemcitabine (NSC613327), 5-fluorouracil (NSC19893), paclitaxel (NSC125973), vemurafenib (NSC761431), panobinostat (NSC761190), R-306465 (JNJ-16241199; NSC773264), adavosertib (NSC754352), TP-3654 (NSC805149), carboplatin (NSC241240), KSQ-4279 (NSC840948), and staurosporine (NSC755774) were obtained from the National Cancer Institute (NCI) Developmental Therapeutics Program Chemical Repository (34). The FDA-approved anticancer drug set is available from the NCI Developmental Therapeutics Program. […] The stock solutions were prepared in dimethyl sulfoxide (DMSO, Sigma-Aldrich, St. Louis, MO, cat. D2650) at 800-fold the tested concentration and stored at -70 degrees C prior to their use. All drugs and investigational agents were tested over a range starting from a high concentration at or near the clinical Cmax and decreasing in half-log increments. If the clinical Cmax for an agent had not been determined, the highest concentration tested was 10 microM.
2.3 Cell Culture. All cells were maintained in an incubator at 37 degrees C and 5% CO2 with 95% humidity. The PDC lines were cultured according to standard operating procedures established by the NCI PDMR. All PDCs were thawed and cultured in Matrigel-coated flasks prepared with a working solution of 1X Ham's F-12 nutrient mix, without supplementation (Invitrogen, cat. 11765054), 100 U/mL penicillin-streptomycin (Invitrogen, cat. 15140122), and 2.5% Matrigel (Corning Inc., cat. 354248) for the first three passages. The 857933-349-R-J2-PDC line was cultured in 6C/Colon 1B media, which includes advanced DMEM/F-12 (Thermo Fisher Scientific, cat. 12634028), 10 mM HEPES (Thermo Fisher Scientific, cat. 15630080), 1X GlutaMAX supplement (Thermo Fisher Scientific, cat. 35050061), 0.1 mg/mL primocin (InvivoGen, cat. ant-pm-2), 10% defined fetal bovine serum, heat inactivated (HyClone Laboratories Inc., cat. SH30070.03HI), 50% L-WRN conditioned media (ATCC, cat. CRL-3276), 1.25 mM N-Acetyl-L-cysteine (Sigma-Aldrich, cat. A9165), 10 mM nicotinamide (Sigma-Aldrich, cat. N0636), 1X B-27 supplement (Thermo Fisher Scientific, cat. 17504044), 1X N-2 supplement (Thermo Fisher Scientific, cat. 17502048), 10 microM Y-27632 dihydrochloride (Tocris Bioscience, cat. 1254), and 50 ng/mL human EGF recombinant protein (Thermo Fisher Scientific, cat. PHG0311). The 485176-168-R4-J1-PDC line was cultured in Panc media, which includes all 6C/Colon 1B media components plus 100 ng/mL human FGF-10 (Thermo Fisher Scientific, cat. 100-26), 500 nM SB-431542 (Selleckchem, cat. S1067), and gastrin (Tocris, cat. 3006).
[…]
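Also: spheroids exposed to agents for 7 days before readout.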
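For viability, T/C in this document: percent viability relative to DMSO vehicle control taken as 100%.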

CC1COCCN1c1cc(C2(S(C)(=N)=O)CC2)nc(-c2ccnc3[nH]ccc23)n1 (configuration not stated) + Cc1[nH]c2ccc(F)cc2c1-c1nc2c3cccnc3c3ncccc3c2[nH]1
683 nM: IC50 (second compound 0.316 µM)
inactive: viability, T/C (second compound 0.0316 µM, first compound 0.0316 µM) 110% | viability, T/C (second compound 0.0316 µM, first compound 0.1 µM) 95.6% | viability, T/C (second compound 0.0316 µM, first compound 0.316 µM) 106% | viability, T/C (second compound 0.0316 µM, first compound 1 µM) 25.7% | viability, T/C (second compound 0.1 µM, first compound 0.0316 µM) 96.8% | viability, T/C (second compound 0.1 µM, first compound 0.1 µM) 107% | viability, T/C (second compound 0.1 µM, first compound 0.316 µM) 93.4% | viability, T/C (second compound 0.1 µM, first compound 1 µM) 30.4% | viability, T/C (second compound 0.316 µM, first compound 0.0316 µM) 94.7% | viability, T/C (second compound 0.316 µM, first compound 0.1 µM) 106% | viability, T/C (second compound 0.316 µM, first compound 0.316 µM) 95.3% | viability, T/C (second compound 0.316 µM, first compound 1 µM) 27.5% | viability, T/C (second compound 0.316 µM, first compound 3.16 µM) 11.1% | viability, T/C (second compound 1 µM, first compound 0.0316 µM) 89.8% | viability, T/C (second compound 1 µM, first compound 0.1 µM) 117% | viability, T/C (second compound 1 µM, first compound 0.316 µM) 105% | viability, T/C (second compound 1 µM, first compound 1 µM) 27.2% | viability, T/C (second compound 3.16 µM, first compound 0.0316 µM) 97.7% | viability, T/C (second compound 3.16 µM, first compound 0.1 µM) 92% | viability, T/C (second compound 3.16 µM, first compound 0.316 µM) 77.4% | viability, T/C (second compound 3.16 µM, first compound 1 µM) 10.7% | viability, T/C (second compound 10 µM, first compound 0.0316 µM) 45.7% | viability, T/C (second compound 10 µM, first compound 0.1 µM) 39.1% | viability, T/C (second compound 10 µM, first compound 0.316 µM) 30.1%
< 31.6 nM: IC50 (second compound 10 µM)
701 nM: IC50 (second compound 0.1 µM)
active: viability, T/C (second compound 0.0316 µM, first compound 3.16 µM) 11.6% | viability, T/C (second compound 0.0316 µM, first compound 10 µM) 8.11% | viability, T/C (second compound 0.1 µM, first compound 3.16 µM) 10.7% | viability, T/C (second compound 0.1 µM, first compound 10 µM) 7.69% | viability, T/C (second compound 0.316 µM, first compound 10 µM) 8.75% | viability, T/C (second compound 1 µM, first compound 3.16 µM) 10.7% | viability, T/C (second compound 1 µM, first compound 10 µM) 6.79% | viability, T/C (second compound 3.16 µM, first compound 3.16 µM) 6.38% | viability, T/C (second compound 3.16 µM, first compound 10 µM) 4.15% | viability, T/C (second compound 10 µM, first compound 1 µM) 4.8% | viability, T/C (second compound 10 µM, first compound 3.16 µM) 4.1% | viability, T/C (second compound 10 µM, first compound 10 µM) 2.86%
508 nM: IC50 (second compound 3.16 µM)
709 nM: IC50 (second compound 1 µM)
699 nM: IC50 (second compound 0.0316 µM)
